# Measurements reported in US20160251403A1, “PEPTIDE COMBINATIONS AND USES THEREOF IN TREATING DUST MITE ALLERGY” (ALK-ABELLO A/S, priority 2013, published 2016).
# No end group written: not given here.
# Experiments:
# [1] = Solubility of peptides in aqueous solutions at different pH (visual inspection, OD, HPLC); format: physicochemical; conditions: pH 7, visual inspection
# Source text: This example describes modifications of parent peptides to improve the aqueous solubility, in particular to increase the solubility in an aqueous solution having pH in a physiologically acceptable range, e.g. from 6 to 8. Solubility is closely related to the ratio between hydrophilic and hydrophobic amino acid residues and the net charge state of the peptide. Peptides have zero net charge at pH=pI, and would be expected to show the lowest solubility at this pH. […] The solubility of these peptides was increased at pH values outside the physiological range (data not shown).
# Peptides were tested for their ability to dissolve in aqueous solutions at different pH values. In short, each of the peptides were dissolved in water (pH about 5-6), hydrochloride solution at pH 2 (10 mM HCl), acetate buffer with pH 5 (20 mM acetate and 140 mM sodium chloride), phosphate buffer with pH 7 (20 mM phosphate and 140 mM sodium chloride) or bistrispropate buffer with pH 9 (20 mM bitrispropane and 140 mM sodium chloride, respectively, to produce a final molar concentration of the peptide of about 0.25 mM or 1 mM. Optionally, about 20% DMSO may be part of the solution. For comparison reasons, peptides were also dissolved in acetonitrile or DMSO. The solutions were inspected visually before and after centrifugation for turbidity, presence of particles/aggregates. In addition, presence of turbidity/particles/aggregates were detected by optical density (OD), but might also be detected by size-exclusion chromatography. Sub-visual particles may also be detected by dynamic light scattering (DLS) analysis. The solubility and stability of each peptide were also investigated using HPLC, e.g. RP-HPLC. For example, each of the solutions were injected onto the HPLC and the peak height or peak area of each of the peptides were compared to the corresponding peptide of a chromatogram of peptides dissolved in acetonitrile or DMSO—as peptides were assumed to be fully dissolved and stable in these solvents.
# [2] = biological target: DRB1_0802 (Homo sapiens, UniProt P01903+P01911, A100R/A103L/A169T/F76Y/H45Y/I96F/K41T/L162R/M171V/P40S/Q125H/Q178H/Q39Y/Q99D/R218S/R42G/S66Y/V115G/W38E); experiment: Competitive MHC class II binding assay, DRB1_0802
# [3] = biological target: DRB1_0701 (Homo sapiens, UniProt P01903+P01911, A100R/A102G/A103Q/D57E/D86V/E43K/F76Y/K127E/L162R/M171V/P40G/Q125H/Q99D/R33Q/R42Y/R54Q/S133A/S66F/T210M/V115G/Y107V/Y59L/Y89S); experiment: Competitive MHC class II binding assay, DRB1_0701;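 also: displacement of a radiolabeled reference peptide from purified HLA class II protein, with complex-bound radioactivity counted after 2–4 days of incubation and six concentrations spanning a 100,000-fold range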
# [4] = biological target: DRB1_0401 (Homo sapiens, UniProt P01903+P01911, A100K/A169T/F76Y/I96L/K127E/L162R/M171V/N62H/P40V/Q125Y/R42H/S133A/S149N/S66Y/V115G/V209L/W38E); experiment: Competitive MHC class II binding assay, DRB1_0401
# [5] = biological target: DRB1_1302 (Homo sapiens, UniProt P01903+P01911, A100E/A169T/K41T/L162R/M171V/P40S/Q125H/Q178H/Q39Y/Q99D/R42S/S66N/T262R/V115G/W38E/Y61H); experiment: Competitive MHC class II binding assay, DRB1_1302;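 also: purified HLA class II protein incubated two to four days with a radiolabeled reference binder and test peptide at six concentrations over a 100,000-fold range, complex-bound radioactivity counted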
# [6] = biological target: DRB1_0901 (Homo sapiens, UniProt P01903+P01911, A100R/A103E/D57H/D86V/F55Y/F60I/F76Y/I96F/K127E/L162R/M171V/P40D/Q125H/Q99R/R33Q/R42F/S133A/S66N/T210M/V115G/W38K/Y107V/Y59G/Y89S); experiment: Competitive MHC class II binding assay, DRB1_0901;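 also: displacement of a radiolabeled probe peptide from purified HLA class II protein, bound counts read after two to four days incubation, six concentrations spanning 100,000-fold, unlabeled probe as reference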
# [7] = biological target: DRB1_1101 (Homo sapiens, UniProt P01903+P01911, A100R/A169T/A87E/I96F/K41T/L162R/M171V/P40S/Q125H/Q178H/Q39Y/Q99D/R42S/S66Y/T262R/V115G/W38E); experiment: Competitive MHC class II binding assay, DRB1_1101
# [8] = biological target: DRB4_0101 (Homo sapiens, UniProt P01903+P13762, G164S); experiment: Competitive MHC class II binding assay, DRB4_0101
# [9] = biological target: DRB1_0405 (Homo sapiens, UniProt P01903+P01911, A100R/A169T/D86S/F76Y/I96L/K127E/L162R/M171V/N62H/P40V/Q125Y/R42H/S133A/S149N/S66Y/V115G/V209L/W38E); experiment: Competitive MHC class II binding assay, DRB1_0405
# [10] = biological target: DRB1_1501 (Homo sapiens, UniProt P01903+P01911); experiment: Competitive MHC class II binding assay, DRB1_1501
# [11] = biological target: DRB3_0202 (Homo sapiens, UniProt P01903+P79483, A212P/D57E/F66Y/L67A/R103Q/R218S/R40L/S89Y/T80R/V86D/Y55F/Y59H); experiment: Competitive MHC class II binding assay, DRB3_0202
# [12] = biological target: DQA10501-DQB10201 (Homo sapiens, UniProt P01909+P01920, A45G/A70V/D89A/E106A/E77G/E98D/H199R/L107V/N214S/P84L/P87L/T103K/T109R/T172A/T60S/V78E/V99I/Y58L/Y62S/Y69I/Y79F); experiment: Competitive MHC class II binding assay, DQA10501-DQB10201
# [13] = biological target: DRB3_0101 (Homo sapiens, UniProt P01903+P79483); experiment: Competitive MHC class II binding assay, DRB3_0101
# [14] = biological target: DRB5_0101 (Homo sapiens, UniProt P01903+Q30154); experiment: Competitive MHC class II binding assay, DRB5_0101
# [15] = biological target: DRB1_0101 (Homo sapiens, UniProt P01903+P01911, A100R/D57E/F55L/F60I/F76Y/I96L/L162R/M171V/P40L/Q125E/R42F/V115G/Y59C); experiment: Competitive MHC class II binding assay, DRB1_0101;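 also: competition against a radiolabeled probe peptide (0.1–1 nM) for purified HLA class II protein over 2–4 days, bound counts read after antibody capture, six competitor levels across 100,000-fold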
# [16] = biological target: DQA10501-DQB10301 (Homo sapiens, UniProt P01909+P01920); experiment: Competitive MHC class II binding assay, DQA10501-DQB10301
# [17] = biological target: DQA10102-DQB10602; experiment: Competitive MHC class II binding assay, DQA10102-DQB10602; conditions: read-out: HLA-DQA10102-DQB10602; positive binding at cutoff 1000 nM
sequence,measurement,setting,value
RIEYIQQNGVVEERSYPYVAR [Peptide 139],Solubility at pH 7 (visual inspection),[1],Clear
RIEYIQQNGVVEERSYPYVARR [Peptide 140],Solubility at pH 7 (visual inspection),[1],Clear
RREALAQTHSAIAVIIGIKDLDA [Peptide 143],Solubility at pH 7 (visual inspection),[1],Slight turbid
RREALAQTHSAIAVIIGIKDLDAR [Peptide 144],Solubility at pH 7 (visual inspection),[1],Clear
RRHAVNIVGYSNAQGVDYWIVRR [Peptide 138],Solubility at pH 7 (visual inspection),[1],Slight turbid
RRHAVNIVGYSNAQGVDYWIVRRR [Peptide 133],Solubility at pH 7 (visual inspection),[1],Clear
RRIEYIQQNGVVEERSYPYVARR [Peptide 141],Solubility at pH 7 (visual inspection),[1],Clear
RRIEYIQQNGVVEERSYPYVARRR [Peptide 142],Solubility at pH 7 (visual inspection),[1],Clear
RRREALAQTHSAIAVIIGIKDLDAR [Peptide 145],Solubility at pH 7 (visual inspection),[1],Clear
RRREALAQTHSAIAVIIGIKDLDARR [Peptide 146],Solubility at pH 7 (visual inspection),[1],Clear
RRRRHAVNIVGYSNAQGVDYWIVR [Peptide 132],Solubility at pH 7 (visual inspection),[1],Slight turbid
"SYYRYVAREQS [HDM205, reference compound]",IC50,[2],< 1 µM
same,IC50,[3],< 1 µM
same,IC50,[4],< 1 µM
same,IC50,[5],< 1 µM
same,IC50,[6],< 1 µM
same,IC50,[7],< 1 µM
same,IC50,[8],< 1 µM
same,IC50,[9],< 1 µM
same,IC50,[10],< 1 µM
TNASSINGNAPAEIDLRQM [pep-041],IC50,[11],< 1 µM
same,IC50,[5],< 1 µM
same,IC50,[12],< 1 µM
same,IC50,[13],< 1 µM
YPPNANKIREALAQTHSAIA [pep-053],IC50,[3],< 1 µM
same,IC50,[14],< 1 µM
same,IC50,[6],< 1 µM
same,IC50,[15],< 1 µM
same,IC50,[8],< 1 µM
same,IC50,[16],< 1 µM
same,IC50,[17],< 1 µM
